SMILES strings stand for the structures.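 Protocol summary: plate cells (96-well), add compound at 5 concentrations, incubate 48 h, interpolate endpoints linearly. GI50: concentration for 50% inhibition of growth.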 Active and inactive are the calls of the source. No stated cut-off is given here; in the data, active = GI50 up to about 1.1 µM and inactive = higher.

Common to all, as to assay: inhibition of tumour cell growth, NCI panel, 48 h
The subject of test [1] is A549.
Test [2] relates to HCT-15.
The test system of test [3] is HL-60.
Test [4] deals with HOP-62.
For test [5], the system named is LOX IMVI.
Test [6] has as its system M14.
The subject of test [7] is Malme-3M.
For test [8], the system named is NCI-H226.
Test [9] deals with NCI-H460.
Test [10] relates to OVCAR-5.
Test [11] concerns OVCAR-8.
In test [12] the test system is SF-268.
Test [13] deals with SF-539.
Test [14] deals with SK-MEL-28.
Test [15] deals with SK-OV-3.
The test system of test [16] is SW-620.
Test [17] relates to UACC-257.
Test [18] concerns UACC-62.
For test [19], the system named is UO-31.

As for `CN1C(=O)C(=O)N2c3ccc(Cl)cc3C3(c4ccccc4)N=CC12O3` (configuration not stated), the GI50 is 10.8 µM (inactive) in [1]; 3.24 µM in [2]; 2.25 µM (inactive) in [3]; 15 µM (inactive) in [4]; 1.53 µM (inactive) in test [5]; 3.21 µM (inactive) in [6]. In addition, the GI50 in test [7] was 20 µM (inactive); in test [8] it was 10.1 µM (inactive); in test [9], 6.03 µM (inactive); in [10] it was 6.93 µM (inactive); in [11], 3.13 µM (inactive); in test [12], 7.53 µM (inactive). Further, the GI50 in test [13] was 3.27 µM (inactive); in test [14] it was 3.44 µM (inactive); in [15], 10.1 µM (inactive); in test [16], 3.79 µM (inactive); in test [17], 5.79 µM (inactive); in [18] it was 3.94 µM (inactive). Moreover, the GI50 in test [19] is 4.1 µM (inactive).
`CC(Oc1ccc2cc(C(=O)c3ccccc3)c(=O)oc2c1)C(=O)O` (configuration not stated): the GI50 in [1], in test [3], in test [4], in test [5], in test [6] and in test [7] was > 100 µM (inactive) throughout. Further, the GI50 in test [8], in test [9], in [11], in test [12], in test [13] and in test [14] was > 100 µM (inactive) in each case. For the same molecule, the GI50 in [15], in test [16], in test [17], in test [18] and in test [19] was > 100 µM (inactive) each time.
For `Cc1nnc(N/N=C(/C(=O)C(C#N)c2ccccc2)C(C#N)c2ccccc2)n1N` (configuration not stated), the GI50 in test [1] was 20.2 µM (inactive); in test [2], 16.1 µM; in [3], 17.9 µM (inactive); in test [4], 50.7 µM (inactive); in test [5], 1.54 µM (inactive); in test [6], 16.8 µM (inactive). Besides, the GI50 in test [7] is 4.18 µM (inactive); in test [8] it was 28.8 µM (inactive); in [9], 1.01 µM (active); in test [10] it was > 42.9 µM (inactive); in test [11] it was 3.62 µM (inactive); in [12], 31 µM (inactive). Besides, the GI50 in test [13] was > 48.6 µM (inactive); in [14], 20 µM (inactive); in test [15] it was > 61.4 µM (inactive); in test [16] it was 1.56 µM (inactive); in [17] it was 5.26 µM (inactive); in test [18], 29.8 µM (inactive). Further, in [19], the GI50 was 26.4 µM (inactive).
For `O=c1c(O)c(-c2ccccc2)n(O)c2ccc(Cl)cc12`, the GI50 in test [1] was 29.6 µM (inactive); in test [2] it was 16 µM; in test [3] it was 24.1 µM (inactive); in test [4], 27.9 µM (inactive); in test [5], 11.4 µM (inactive); in [6] it was 30.8 µM (inactive). For the same molecule, the GI50 is 60.1 µM (inactive) in test [7]; 19.1 µM (inactive) in test [8]; 23.6 µM (inactive) in test [9]; 38.9 µM (inactive) in [10]; 21.3 µM (inactive) in test [11]; 27.4 µM (inactive) in test [12]. Also, the GI50 was 20 µM (inactive) in [13]; 44 µM (inactive) in test [14]; 30.8 µM (inactive) in [15]; 16.6 µM (inactive) in test [16]; 25.1 µM (inactive) in test [17]; 24.5 µM (inactive) in test [18]. Also, the GI50 in test [19] was 51.2 µM (inactive).
For `CC(C)c1cc(OCC(O)CO)cc(C(C)C)c1` (configuration not stated), the GI50 in test [1] was > 100 µM (inactive); in test [2], above 100 µM; in test [3] it was > 100 µM (inactive); in test [4], > 100 µM (inactive); in test [5], > 100 µM (inactive); in test [6], > 100 µM (inactive). In addition, the GI50 in [7], in test [8], in [9], in test [10], in test [11] and in [12] was > 100 µM (inactive) each time. Moreover, the GI50 in [13], in test [14], in [15], in test [16], in test [17] and in test [18] was > 100 µM (inactive) each time. The GI50 in test [19] was > 100 µM (inactive).
Turning to `COc1ccc(O)c(C#N)c1C#N`, the GI50 was > 100 µM (inactive) in test [1]; above 100 µM in test [2]; > 100 µM (inactive) in test [3]; > 100 µM (inactive) in [4]; < 0.01 µM (active) in test [5]; > 100 µM (inactive) in test [6]. For the same molecule, the GI50 in test [7], in test [8], in test [9], in test [10], in [11] and in [12] was > 100 µM (inactive) throughout. Also, the GI50 in test [13], in test [15], in test [16], in test [17], in test [18] and in [19] was > 100 µM (inactive) in each case.
With `C[C@@H]1C(=O)CC2C(C)(C)CCC[C@]2(C)[C@@]12CC[C@]1(C=COC1)O2` (some centres not stated), the GI50 is 36.1 µM (inactive) in [1]; 30.5 µM in test [2]; 18.7 µM (inactive) in [3]; 50.8 µM (inactive) in [4]; 33.4 µM (inactive) in test [5]; 29.4 µM (inactive) in test [6]. Besides, the GI50 in test [7] is 27.8 µM (inactive); in [8] it was 91 µM (inactive); in [9], 32.8 µM (inactive); in [10] it was > 100 µM (inactive); in test [11], 27.9 µM (inactive); in [12], 64.7 µM (inactive). Also, the GI50 in test [13] was 39.5 µM (inactive); in [15] it was 27.5 µM (inactive); in [16] it was 50.8 µM (inactive); in test [18], 35.4 µM (inactive); in test [19], 29.9 µM (inactive).
Regarding `COC(=O)c1c[nH]cc1CCc1c[nH]cc1C(=O)OC`, the GI50 in test [1] was > 100 µM (inactive); in [2], above 100 µM; in [3], > 100 µM (inactive); in [4] it was > 100 µM (inactive); in [5] it was > 100 µM (inactive); in [7], > 100 µM (inactive). The GI50 in [8], in test [9], in test [10], in test [11], in test [12] and in [13] was > 100 µM (inactive) in each case. Further, the GI50 in [14], in test [15], in [16] and in test [17] was > 100 µM (inactive) throughout.
As to `CC1CC(C)C(C(O)CC2CC(=O)N(c3ccccc3)C(=O)C2)C(O)C1` (configuration not stated), the GI50 in test [1], in test [3], in test [4], in test [5], in test [6] and in test [7] was > 100 µM (inactive) throughout. Also, the GI50 in test [8], in [9], in test [10], in [11], in test [12] and in [13] was > 100 µM (inactive) throughout. The GI50 in [14], in test [15], in [16], in [17], in test [18] and in test [19] was > 100 µM (inactive) in each case.
As for `c1ccc(Nc2nnc(CSc3nc(-c4ccccc4)c(-c4ccccc4)[nH]3)s2)cc1`, the GI50 is 28.4 µM (inactive) in test [1]; 18.1 µM in test [2]; 13.2 µM (inactive) in test [3]; 21.1 µM (inactive) in test [4]; 17 µM (inactive) in [5]; 14.7 µM (inactive) in [6]. Also, the GI50 was 19.2 µM (inactive) in [7]; 14.9 µM (inactive) in [8]; 12.4 µM (inactive) in test [9]; 21.3 µM (inactive) in test [10]; 23 µM (inactive) in [11]; 24.4 µM (inactive) in [12]. For the same molecule, the GI50 is 26.4 µM (inactive) in [13]; 24.2 µM (inactive) in test [14]; 22.8 µM (inactive) in test [15]; 20.5 µM (inactive) in test [17]; 13.3 µM (inactive) in [19].
For `CCOC(=O)Cc1nc2ccccc2s1`, the GI50 in test [1] is 22.9 µM (inactive); in test [3] it was 18.2 µM (inactive); in test [4], 22.9 µM (inactive); in test [5] it was 17.8 µM (inactive); in [6], 16.6 µM (inactive); in test [7], 16.3 µM (inactive). Further, the GI50 in test [8] is 21.8 µM (inactive); in test [9], 20.4 µM (inactive); in [10], 24.9 µM (inactive); in [11] it was 17.5 µM (inactive); in [12], 18.6 µM (inactive); in test [13] it was 18.4 µM (inactive). The GI50 was 15 µM (inactive) in [14]; 50.9 µM (inactive) in [15]; 19.2 µM (inactive) in [16]; 17.3 µM (inactive) in [17]; 17.9 µM (inactive) in [18]; 15.8 µM (inactive) in test [19].

For the origin of these results see ChEMBL document CHEMBL1201862, “PubChem BioAssay data set” (2004).
